Values of other authors, collected in patent publication US20260232695A1, “ORAL FORMULATIONS OF ABIRATERONE ACETATE AND METHOD OF MANUFACTURING THEREOF” (BDR PHARMACEUTICALS INTERNATIONAL PRIVATE LIMITED, priority 2022, published 2026).

Settings: poor solubility in water and lower lipid permeability

BCS class: Class IV
SMILES: CC(=O)O[C@H]1CC[C@@]2(C)C(=CC[C@@H]3[C@@H]2CC[C@]2(C)C(c4cccnc4)=CC[C@@H]32)C1 [Abiraterone Acetate, 17-(pyridin-3-yl)androsta-5,16-dien-3β-yl acetate]
